Test results from US7244738B2, “Arylamine-substituted quinazolinone compounds useful as alpha 1A/B adrenergic receptor antagonists” (Roche Palo Alto LLC, priority 2003, dated 2007).
Counter-ions that a name gives are not always drawn.

| melting point [°C] | SMILES |
| --- | --- |
| 175 to 195 | COc1cc2[nH]c(N(C)Cc3cccc(CC4CCN(C)CC4)c3)nc(=O)c2c(OC)c1OC (as salt: HCl) [Example 127, 5,6,7-Trimethoxy-2-{methyl-[3-(1-methyl-piperidin-4-ylmethyl)-benzyl]-amino}-1H-quinazolin-4-one] |
| 166.5 to 172.9 | COc1cc2[nH]c(N(C)Cc3cccc(NC(C)=O)c3)nc(=O)c2c(OC)c1OC (as salt: HCl) [Example 174, N-(3-{[Methyl-(5,6,7-trimethoxy-4-oxo-1,4-dihydro-quinazolin-2-yl)-amino]-methyl}-phenyl)-acetamide] |
| 156 to 157.2 | COc1cc2[nH]c(N(C)Cc3cccc(N(C)CCCO)c3)nc(=O)c2c(OC)c1OC (as salt: HCl) [Example 187] |
| 207 to 209.1 | COCCCNc1cccc(CN(C)c2nc(=O)c3c(OC)c(OC)c(OC)cc3[nH]2)c1 (as salt: HCl) [Example 188, 5,6,7-Trimethoxzy-2-{[3-(3-methoxy-propylamino)-benzyl]-methyl-amino}-1H-quinazolin-4-one] |
| 166.7 to 168.1 | COCCCN(C)c1cccc(CN(C)c2nc(=O)c3c(OC)c(OC)c(OC)cc3[nH]2)c1 (as salt: HCl) [Example 189, 5,6,7-Trimethoxy-2-({3-[(3-methoxy-propyl)-methyl-amino]-benzyl}-methyl-amino)-1H-quinazolin-4-one] |
| 279.9 to 281.5 | COc1cc2[nH]c(N(C)Cc3cccc(C#N)c3)nc(=O)c2c(C)c1OC (as salt: TFA) [Example 96, 3-{[(6,7-Dimethoxy-5-methyl-4-oxo-1,4-dihydro-quinazolin-2-yl)-methyl-amino]-methyl}-benzonitrile] |
| 106.1 to 116.6 | COc1cc2[nH]c(N(C)Cc3cccc(C4=NCCN4CCO)c3)nc(=O)c2c(OC)c1OC (as salt: TFA) [Example 245, 2-({3-[1-(2-Hydroxy-ethy)-4,5-dihydro-1H-imidazol-2-yl]-benzyl}-methyl-amino)-5,6,7-trimethoxy-1H-quinazolin-4-one] |
| 162.9 to 164.5 | COCCN(C)Cc1cccc(CN(C)c2nc(=O)c3c(OC)c(OC)c(OC)cc3[nH]2)c1 (as salt: hydrochloride) [Example 117, 5,6,7-Trimethoxy-2-[(3-{[(2-methoxy-ethyl)-methyl-amino]-methyl}-benzyl)-methyl-amino]-1H-quinazolin-4-one] |
| 212.5 to 219.9 | CCc1c(OC)c(OC)cc2[nH]c(N(C)Cc3cccc(N=C4N(C)CCN4C)c3)nc(=O)c12 (as salt: salt) [Example 207, 2-{[3-(1,3-dimethyl-imidazolidin-2-ylideneamino)-benzyl]-methyl-amino}-5-ethyl-6,7-dimethoxy-1H-quinaolin-4-one] |
| 220 to 223 | COc1cc2nc(N(C)Cc3cccc(N4CCCC4)c3)[nH]c(=O)c2cc1OC (as salt: salt) [Example A-1, 6,7-Dimethoxy-2-[methyl-(3-pyrrolidin-1-yl-benzyl)-amino]-1H-quinazolin-4-one] |
| 224 to 227.8 | COc1cc2[nH]c(N(C)Cc3cccc(Oc4ncccn4)c3)nc(=O)c2c(C)c1OC (as salt: salt) [Example F-3, 6,7-Dimethoxy-5-methyl-2-{methyl-[3-(pyrimidin-2-yloxy)-benzyl]-amino}-1H-quinazolin-4-one] |
| 170.6 to 172.5 | COc1cc2nc(N(C)Cc3cccc(/N=C(\C)N(C)C)c3)[nH]c(=O)c2c(C)c1OC (as salt: salt) [Example G-1, N′-(3-{[(6,7-Dimethoxy-5-methyl-4-oxo-1,4-dihydro-quinazolin-2-yl)-methyl-amino]-methyl}-phenyl)-N,N-dimethyl-acetamidine] |
| 97.8 to 101.9 | COc1cc2[nH]c(N(C)Cc3ccc(CN(C)CCC(F)(F)F)cc3)nc(=O)c2c(OC)c1OC [Example 1, 5,6,7-Trimethoxy-2-[methyl-(4-{[methyl-(3,3,3-trifluoro-propyl)-amino]-methyl}-benzyl)-amino]-1H-quinazolin-4-one] |
| 108.1 to 111.5 | COCC(O)COc1ccc(CN(C)c2nc(=O)c3c(OC)c(OC)c(OC)cc3[nH]2)cc1 (stereo not drawn) [Example 2, 2-{[4-(2-Hydroxy-3-methoxy-propoxy)-benzyl]-methyl-amino}-5,6,7-trimethoxy-1H-quinazolin-4-one] |
| 125.9 to 128 | COc1cc2[nH]c(N(C)Cc3cccc(C(C)N(C)C(=O)N(C)C)c3)nc(=O)c2c(C)c1OC (stereo not drawn) [Example 4, 1-[1-(3-{[(6,7-Dimethoxy-5-methyl-4-oxo-1,4-dihydro-quinazolin-2-yl)-methyl-amino]-methyl}-phenyl)-ethyl]-1,3,3-trimethyl-urea] |
| 117.9 to 120.1 | COC(=O)N(C)C(C)c1cccc(CN(C)c2nc(=O)c3c(C)c(OC)c(OC)cc3[nH]2)c1 (stereo not drawn) [Example 5] |
| 210.8 to 215.4 | COc1ccc(CN(C)c2nc(=O)c3c(C)c(OC)c(OC)cc3[nH]2)cc1OCC(CO)CO [Example 6, 2-{[3-(3-Hydroxy-2-hydroxymethyl-propoxy)-4-methoxy-benzyl]-methyl-amino}-6,7-dimethoxy-5-methyl-1H-quinazolin-4-one] |

| melting point [°C] | SMILES |
| --- | --- |
| 142.5 to 147.4 | COc1cc2[nH]c(N(C)Cc3cccc(N4C[C@@H](OC)CC4=O)c3)nc(=O)c2c(OC)c1OC [Example 8, 5,6,7-Trimethoxy-2-{[3-((S)-4-methoxy-2-oxo-pyrrolidin-1-yl)-benzyl]-methyl-amino}-1H-quinazolin-4-one] |
| 159.4 to 160.4 | COCCOC(=O)N(C)Cc1ccc(CN(C)c2nc(=O)c3c(C)c(OC)c(OC)cc3[nH]2)cc1 [Example 9, (4-{[(6,7-Dimethoxy-5-methyl-4-oxo-1,4-dihydro-quinazolin-2-yl)-methyl-amino]-methyl}-benzyl)-methyl-carbamic acid 2-methoxy-ethyl ester] |
| 238 to 240 | COc1cc2[nH]c(N(C)Cc3ccc(CN(C)S(C)(=O)=O)cc3)nc(=O)c2c(C)c1OC [Example 10, N-(4-{[(6,7-Dimethoxy-5-methyl-4-oxo-1,4-dihydro-quinazolin-2-yl)-methyl-amino]-methyl}-benzyl)-N-methyl-methanesulfonamide] |
| 202.3 to 203.4 | COc1cc2[nH]c(N(C)Cc3cccc(C4=NCCO4)c3)nc(=O)c2c(OC)c1OC [Example 11, 2-{[3-(4,5-Dihydro-oxazol-2-yl)-benzyl]-methyl-amino}-5,6,7-trimethoxy-1H-quinazolin-4-one] |
| 195.9 to 197.4 | COc1cc2[nH]c(N(C)Cc3ccc(N4CCCC4=O)cc3)nc(=O)c2c(OC)c1OC [Example 12, 5,6,7-Trimethoxy-2-{methyl-[4-(2-oxo-pyrrolidin-1-yl)-benzyl]-amino}-1H-quinazolin-4-one] |
| 133.7 to 136.6 | C=CCN1Cc2ccc(CN(C)c3nc(=O)c4c(OC)c(OC)c(OC)cc4[nH]3)cc2C1 [Example 13, 2-[(2-Allyl-2,3-dihydro-1H-isoindol-5-ylmethyl)-methyl-amino]-5,6,7-trimethoxy-1H-quinazolin-4-one] |
| 199.7 to 201.9 | COc1cc2[nH]c(N(C)Cc3ccc(OCC(O)CO)cc3)nc(=O)c2c(C)c1OC (stereo not drawn) [Example 14, 2-{[4-(2,3-Dihydroxy-propoxy)-benzyl]-methyl-amino}-6,7-dimethoxy-5-methyl-1H-quinazolin-4-one] |
| 144.8 to 146.2 | COc1ccc(CN(C)c2nc(=O)c3c(C)c(OC)c(OC)cc3[nH]2)cc1OCCN(C)CCO [Example 16, 2-[(3-{2-[(2-Hydroxy-ethyl)-methyl-amino]-ethoxy}-4-methoxy-benzyl)-methyl-amino]-6,7-dimethoxy-5-methyl-1H-quinazolin-4-one] |
| 223.9 to 225.9 | COc1cc2[nH]c(N(C)Cc3cccc(CN(C)S(C)(=O)=O)c3)nc(=O)c2c(C)c1OC [Example 17, N-(3-{[(6,7-Dimethoxy-5-methyl-4-oxo-1,4-dihydro-quinazolin-2-yl)-methyl-amino]-methyl}-benzyl)-N-methyl-methanesulfonamide] |
| 133.3 to 136.6 | COCCN1Cc2ccc(CN(C)c3nc(=O)c4c(OC)c(OC)c(OC)cc4[nH]3)cc2C1 [Example 18, 5,6,7-Trimethoxxy-2-{[2-(2-methoxy-ethyl)-2,3-dihydro-1H-isoindol-5-ylmethyl]-methyl-amino}-1H-quinazolin-4-one] |
| 173.3 to 177.9 | COCCN1Cc2ccc(CN(C)c3nc(=O)c4c(C)c(OC)c(OC)cc4[nH]3)cc2C1 [Example 19, 6,7-Dimethoxy-2-{[2-(2-methoxy-ethyl)-2,3-dihydro-1H-isoindol-5-ylmethyl]-methyl-amino}-5-methyl-1H-quinazolin-4-one] |
| 90.2 to 94.7 | COc1cc2[nH]c(N(C)Cc3cccc(N4CCC(OC)C4=O)c3)nc(=O)c2c(OC)c1OC (stereo not drawn) [Example 20, 5,6,7-Trimethoxy-2-{[3-(3-methoxy-2-oxo-prrolidin-1-yl)-benzyl]-methyl-amino}-1H-quinazolin-4-one] |
| 148.8 to 151 | COc1cc2[nH]c(N(C)Cc3ccc(CN(C)S(C)(=O)=O)cc3)nc(=O)c2c(OC)c1OC [Example 21, N-Methyl-N-(4-{[methyl-(5,6,7-trimethoxy-4-oxo-1,4-dihydro-quinazolin-2-yl)-amino]-methyl}-benzyl)-methanesulfonamide] |
| 154.6 to 159 | CNCCc1ccc(CN(C)c2nc(=O)c3c(C)c(OC)c(OC)cc3[nH]2)cc1 [Example 23, 6,7-Dimethoxy-5-methyl-2-{methyl-[4-(2-methylamino-ethyl)-benzyl]-amino}-1H-quinazolin-4-onbe] |
| 207.5 to 209.9 | COc1cc2[nH]c(N(C)Cc3cccc(N4C[C@@H](O)CC4=O)c3)nc(=O)c2c(OC)c1OC [Example 24, 2-{[3-((S)-4-Hydroxy-2-oxo-pyrrolidin-1-yl)-benzyl]-methyl-amino}-5,6,7-trimethoxy-1H-quinazolin-4-one] |
| 158.1 to 159.2 | CCN(C)CCOc1ccc(CN(C)c2nc(=O)c3c(C)c(OC)c(OC)cc3[nH]2)cc1OC [Example 25, 2-({4-[2-(Ethyl-methyl-amino)-ethoxy]-3-methoxy-benzyl}-methyl-amino)-6,7-dimethoxy-5-methyl-1H-quinazolin-4-one] |
